Assay [1] has as its system MCF-7 (HER2 negative to normal). Put plainly: Cytotoxicity of anti-HER2 ADCs, SRB assay. The assay is classed as cell-based, human. Particulars: Table 12, hybrid ADCs. How it is done:
(§1) Commercially available human breast cancer cell lines MCF-7 (HER2 negative to normal), OE-19 (HER2 positive), NCI-N87 (HER2 positive), SK-OV-3 (HER2 positive), JIMT-1 (HER2 positive), and SK-BR-3 (HER2 positive) were used. The cell lines were cultured according to recommended specifications provided with the commercially available cell lines.
(§2) Anti-proliferation activities of the antibodies, drugs, and conjugates with regard to the cancer cell lines were measured. The cells were plated in 96-well, tissue culture plates at 1×10^4 cells per well. After 24 hour incubation, the antibodies, drugs, and conjugates were added in various concentrations. The number of viable cells after 72 hours were counted using SRB assay. Absorbance was measured at 540 nm using SpectraMax 190 (Molecular Devices, USA).
In general terms: In SRB staining, fixed cells bind dye roughly in proportion to their protein.

Assay [2] has as its system NCI-N87 (HER2 positive). Put plainly: Cytotoxicity of anti-HER2 ADCs, SRB assay. The conditions noted are these: Table 12, hybrid ADCs. The assay is classed as cell-based, human. How it is done:
as §1, §2

Assay [3] has as its system SK-OV-3 (HER2 positive). Put plainly: Cytotoxicity of anti-HER2 ADCs, SRB assay. Type of assay: cell-based, human. The conditions noted are these: Table 12, hybrid ADCs. How it is done:
as §1, §2

Assay [4] has as its system A431 cells, which express high levels of EGFR. Put plainly: Cytotoxicity of Erbitux based ADCs, SRB. Type of assay: cell-based. The conditions noted are these: 72 hours; read-out: IC50 against A431 cells. How it is done: (§3) A431 cells, which express high levels of EGFR, and MCF-7 cells, which express low levels of EGFR, were plated at about 1000 cells per well in a 96-well plate in 100 μL of media. HCC-827 cells, which express an intermediate level of EGFR were plated at about 5000 cells per well in a 96-well plate in 100 μL of media. […] The cells were incubated for 72 hours and then fixed for 1 hour at 4° C. after adding 100 μL of ice-cold 10% trichloroacetic acid to each well.

Assay [5] has as its system HCC-827 cells, which express an intermediate level of EGFR. Put plainly: Cytotoxicity of Erbitux based ADCs, SRB. Particulars: 72 hours; read-out: IC50 against HCC-827 cells. The assay is classed as cell-based. How it is done:
as §3

Assay [6] has as its system MCF-7 cells, which express low levels of EGFR. Put plainly: Cytotoxicity of Erbitux based ADCs, SRB. The assay is classed as cell-based. The conditions noted are these: 72 hours; read-out: IC50 against MCF-7 cells. How it is done: as §3
Assay [7] concerns SK-BR3 cells. Put plainly: Plasma stability of ADCs: human plasma incubation, then SRB cytotoxicity test. The assay is classed as cell-based. The conditions noted are these: Table 18; human plasma 0 h; SK-BR3 cells 72 hr; read-out: Plasma stability of Herceptin based ADCs (nM), Plasma incubation time 0 h.

The structures appear in SMILES notation. Square brackets hold non-standard residues; d marks the D form. Peptide text beside a SMILES is read from it. Dolaproine = CO[C@@H]([C@@H]1CCCN1)[C@@H](C)C(=O)O; Dil = CC[C@H](C)[C@H](NC)[C@@H](CC(=O)O)OC; NMeV = CN[C@H](C(=O)O)C(C)C

With `CC[C@H](C)[C@@H]([C@@H](CC(=O)N1CCC[C@H]1[C@H](OC)[C@@H](C)C(=O)N[C@@H](Cc1ccccc1)C(=O)OC)OC)N(C)C(=O)[C@@H](NC(=O)[C@@H](NC)C(C)C)C(C)C` [MMAF-OMe, monomethyl auristatin F methyl ester] (H-[NMeV]V[Dil][Dolaproine]F-OMe), the IC50 in assay [1] was found to be 0.6 nM; in assay [2], 0.49 nM; in assay [3], 0.78 nM; in assay [4], 1.11 nM; in assay [5], 1.99 nM; in assay [6] it was 1.81 nM. The IC50 in assay [7] turned out to be 0.48 nM.

The values above are taken from US11167040B2, “Conjugates comprising peptide groups and methods related thereto” (priority 2015, dated 2021).
